Test results taken from ChEMBL document CHEMBL5532727, “The Inhibitors of Mucosa-Associated Lymphoid Tissue Lymphoma Translocation Protein 1 (MALT-1) Protease as Potential Treatment of ABC-DLBCL and Similar Diseases” (ACS Med Chem Lett, 2024).

Assay: Inhibition of IL-6 production in MALT-1 dependent human OCILY3 cells incubated for 48 hrs by AlphaLISA immunoassay
Type: functional, cell-based
Conditions: OCI-Ly3, 48 h

SMILES | EC50 [µM]
CO[C@@H](C)c1c(Nc2ccc([C@H](N(C)C(=O)C3CCN(C(=O)CCO)CC3)C(F)(F)F)cc2)cnc2sc(C)nc12 | 0.38
CO[C@@H](C)c1c(Nc2ccc([C@H](N(C)C(=O)C3CCN(C(=O)[C@H](O)CO)CC3)C(F)(F)F)cc2)cnc2sc(C)nc12 | 0.41
CO[C@H](c1c(Nc2ccc([C@@H](C(F)F)N(C)C(=O)C3CCN(C(=O)CO)CC3)cc2)cnc2sc(C)nc12)C(F)(F)F | 0.27
CO[C@H](C)c1c(Nc2ccc([C@@H](C(F)F)N(C)C(=O)C3CCS(=O)(=O)CC3)cc2)cnc2sc(C)nc12 | 0.2
CO[C@H](c1c(Nc2ccc([C@@H](C(F)F)N(C)C(=O)C3CCN(C(=O)CO)CC3)cc2)cnc2sc(C)nc12)C(F)F | 0.44
CO[C@H](c1c(Nc2ccc([C@H](N(C)C(=O)C3CCN(C(C)=O)CC3)C(F)(F)F)cc2)cnc2sc(C)nc12)C(F)F | 1.15

Results, then the molecule that gave them:

EC50 [µM] | SMILES
0.14 | CO[C@H](c1c(Nc2ccc([C@H](N(C)C(=O)C3CCS(=O)(=O)CC3)C(F)(F)F)cc2)cnc2sc(C)nc12)C(F)F
0.04 | Cc1nc2c([C@H](C)C(F)(F)F)c(Nc3ccc([C@H](N(C)C(=O)C4CCS(=O)(=O)CC4)C(F)(F)F)cc3)cnc2s1 (single isomer, unassigned)
0.3 | CO[C@@H](C)c1c(Nc2ccc([C@H](N(C)C(=O)C3CCS(=O)(=O)CC3)C(F)(F)F)cc2)cnc2sc(C(F)F)nc12
0.34 | CO[C@@H](c1c(Nc2ccc([C@H](N(C)C(=O)C3CCS(=O)(=O)CC3)C(F)(F)F)cc2)cnc2sc(C)nc12)C(F)F
0.2 | CO[C@@H](C)c1c(Nc2ccc([C@H](N(C)C(=O)C3CCS(=O)(=O)CC3)C(F)(F)F)cc2)cnc2sc(C)nc12
0.07 | CO[C@H](C)c1c(Nc2ccc([C@H](N(C)C(=O)C3CCS(=O)(=O)CC3)C(F)(F)F)cc2)cnc2sc(C)nc12
